Here are results for two molecules from patent US20130172340A1, “SUBSTITUTED 2-(9H-PURIN-9-YL) ACETIC ACID ANALOGUES AS INHIBITORS OF STAT3” (University of Central Flordia Research Foundation,, priority 2010, published 2013).

A word on the IC50: it is the concentration needed to halve the response being measured. Usually Kd stands for the equilibrium constant for the complex coming apart. A high value points to a looser complex.

One assay has as its system pSrc. Description: Immunoblotting of constitutive pSrc in NIH3T3/v-Src and MDA-MB-231. The class given is cell-based. Particulars: same treatments, all panels of FIG. 2. The method, then:
(§1) Positions of proteins in gel are labeled; control lanes (0) are whole-cell lysates from 0.05% DMSO-treated cells. Data are representative of 3-4 independent determinations. Further discussion on the figure is provided in the Experimental section below.
(§2) Immunoprecipitation, and SDS/PAGE and Western blotting analysis were performed as previously described (6, 16). Primary antibodies used were anti-STAT3, pY705STAT3, pY416Src, Src, pErk1/2, Erk1/2, pSTAT1, STAT1, (Cell Signaling), and antiphosphotyrosine, clone 4G10 (Upstate Biotechnology, Lake Placid, N.Y.). Where appropriate, cells were stimulated for 12 min by 9 ng/μl rhEGF (12 μl into 3 ml culture) prior to preparation of whole-cell lysates for immunoprecipitation and/or immunoblotting analysis.
In general terms: Immunoblotting shows a protein as a band on a membrane.

Assay [1] has as its system pY705STAT3. Description: Immunoblotting of constitutive STAT3 phosphorylation in MDA-MB-231. The class given is cell-based, human. The conditions noted are these: for constitutive STAT3 phosphorylation: MDA-MB-231, 40 or 50 μM, 12, 24, or 48 h. The method, then: as §1, §2
A further assay has as its system DU 145. Description: CyQuant cell viability and proliferation assay, DU 145. The class given is cell-based. Particulars: Homo sapiens, 48 h, CyQuant viability. The method, then:
(§3) Briefly, human breast (MDA-MB-231), pancreatic (Panc-1), and prostate (DU145) cancer cells, the v-Src transformed (NIH3T3/v-Src) fibroblasts or their normal counterparts (NIH3T3), and the murine thymic stromal epithelial cells (TE-71) were treated or not treated with 30-500 μM of the representative disclosed compounds, as indicated, for 48 h and assessed for viability using CyQuant cell proliferation kit. Values, mean (SD of 3 independent experiments each in triplicate.
(§4) Cells in culture in 6-well or 96-well plates were treated with or without agents for 24-144 h and subjected to CyQuant cell proliferation assay (Invitrogen Corp/Life Technologies Corp, Carlsbad, Calif.). IC50 values shown below were derived from the plot of viability versus drug concentration.
(§5) As aberrant STAT3 activity promotes cancer cell growth and survival, and tumor angiogenesis and metastasis (Turkson et al., 2004; Yue et al., 2009; Turkson et al., 2004; Turkson et al., 2001; Siddiquee et al., 2007; Siddiquee et al., 2007(b); Song et al., 2005; Turkson et al., 2005), the sensitivity of various cell lines to the purine scaffold treatment was tested. […] (see also Table 2). The data represented by FIG. 4 were the results of experiments performed in triplicate.

For a further assay, the system named is pY705-STAT3. The assay is described as follows: Immunoblotting of EGF-induced STAT3 phosphorylation in NIH3T3/hEGFR. The class given is cell-based, mouse. The conditions noted are these: EGF-stimulated. The protocol: As indicated, the cells were treated or untreated with the indicated agents at 40 or 50 μM for the indicated times and probing for pY705STAT3, STAT3, pErk1/2, Erk1/2, pSrc, Src, pSTAT1, STAT1, or pTyr (clone 4G10). Positions of proteins in gel are labeled; control lanes (0) are whole-cell lysates from 0.05% DMSO-treated cells. Data are representative of 3-4 independent determinations. Further discussion on the figure is provided in the Experimental section below.
as §2
The effect of 8bj and 17b on ligand-stimulated STAT activation was also examined. […] These findings were consistent with other reports regarding other SH2 domain binding STAT3 inhibitors. (Turkson et al., 2001; Siddiquee et al., 2007; Siddiquee et al., 2007(b)).

In a further assay the test system is Panc-1. Description: CyQuant cell viability and proliferation assay, Panc-1. Particulars: Homo sapiens, 48 h, CyQuant viability. The class given is cell-based. The protocol: as §3, §4, §5
In assay [2] the test system is DU145, MDA-MB-231, Panc-1 and NIH3T3/v-Src cells. The assay is described as follows: CyQuant cell proliferation assay, cells that harbor constitutively active STAT3. The class given is cell-based. Particulars: 48 hours, 30-500 μM, DU145, MDA-MB-231, Panc-1, NIH3T3/v-Src. The text has this:
Values, mean (SD of 3 independent experiments each in triplicate.
IC50 values shown below were derived from the plot of viability versus drug concentration.
(see also Table 2). The data represented by FIG. 4 were the results of experiments performed in triplicate.

For the next assay, the system named is MDA-MB-231. Description: CyQuant cell viability and proliferation assay, MDA-MB-231. The conditions noted are these: Homo sapiens, 48 h, CyQuant viability. The class given is cell-based. The protocol: as §3, §4, §5
The next assay has as its system NIH3T3/v-Src. The assay is described as follows: CyQuant cell viability and proliferation assay, NIH3T3/v-Src. Type of assay: cell-based. The conditions noted are these: Mus musculus, 48 h, CyQuant viability. The method, then: as §3, §4, §5
Assay [3] deals with pY705STAT3. The assay is described as follows: Immunoblotting of constitutive STAT3 phosphorylation in NIH3T3/v-Src. Particulars: for constitutive STAT3 phosphorylation: NIH3T3/v-Src, 40 or 50 μM, 12, 24, or 48 h. Type of assay: cell-based, mouse. The method, then: as §1, §2
Another assay addresses STAT3 (Mus musculus, UniProt P42227). Description: Surface plasmon resonance analysis of binding to STAT3. Further details: His; made in house; host or cells: E. coli BL21(DE3); species or system murine. The conditions noted are these: SPR, purified STAT3 immobilized on HisCap Sensor Chip. The protocol: Coding regions for the murine STAT3 protein and STAT3 SH2 domain were amplified by PCR and cloned into vectors pET-44 Ek/LIC (Novagen) and pET SUMO (Invitrogen), respectively. […] Clones were sequenced to verify the correct sequences and orientation. His-tagged recombinant proteins were expressed in BL21(DE3) cells, and purified on Ni-ion sepharose column.
Surface Plasmon resonance analysis was performed to characterize the binding of compounds to STAT3, as previously reported (16). SensiQ and its analysis software Qdat (ICX Technologies, Oklahoma City, Okla.) were used to analyze the interaction between agents and the STAT3 protein and to determine the binding affinity. Purified STAT3 was immobilized on a HisCap Sensor Chip by injecting 50 μg/ml of STAT3 onto the chip. Various concentrations of compounds in running buffer (1×PBS, 0.5% DMSO) were passed over the sensor chip to produce response signals. The association and dissociation rate constants were calculated using the Qdat software. The ratio of the association and dissociation rate constants was determined as the affinity (KD).
Background: Surface plasmon resonance follows binding to a sensor surface in real time, without labels.

The next assay relates to pErk1/2. Description: Immunoblotting of constitutive phospho-ErkMAPK in NIH3T3/v-Src and MDA-MB-231. The class given is cell-based. The conditions noted are these: same treatments, all panels of FIG. 2. The method, then:
as §1, §2

The subject of another assay is NIH3T3. Description: CyQuant cell viability and proliferation assay, NIH3T3. The class given is cell-based. Particulars: Mus musculus, 48 h, CyQuant viability. The method, then: as §3, §4, §5
Another assay concerns TE-71. The assay is described as follows: CyQuant cell viability and proliferation assay, TE-71. The class given is cell-based, murine. Particulars: Mus musculus; 48 h, CyQuant viability. The protocol:
as §3, §4, §5

Chain of STAT3 (P42227 whole entry, the tested form may be a part): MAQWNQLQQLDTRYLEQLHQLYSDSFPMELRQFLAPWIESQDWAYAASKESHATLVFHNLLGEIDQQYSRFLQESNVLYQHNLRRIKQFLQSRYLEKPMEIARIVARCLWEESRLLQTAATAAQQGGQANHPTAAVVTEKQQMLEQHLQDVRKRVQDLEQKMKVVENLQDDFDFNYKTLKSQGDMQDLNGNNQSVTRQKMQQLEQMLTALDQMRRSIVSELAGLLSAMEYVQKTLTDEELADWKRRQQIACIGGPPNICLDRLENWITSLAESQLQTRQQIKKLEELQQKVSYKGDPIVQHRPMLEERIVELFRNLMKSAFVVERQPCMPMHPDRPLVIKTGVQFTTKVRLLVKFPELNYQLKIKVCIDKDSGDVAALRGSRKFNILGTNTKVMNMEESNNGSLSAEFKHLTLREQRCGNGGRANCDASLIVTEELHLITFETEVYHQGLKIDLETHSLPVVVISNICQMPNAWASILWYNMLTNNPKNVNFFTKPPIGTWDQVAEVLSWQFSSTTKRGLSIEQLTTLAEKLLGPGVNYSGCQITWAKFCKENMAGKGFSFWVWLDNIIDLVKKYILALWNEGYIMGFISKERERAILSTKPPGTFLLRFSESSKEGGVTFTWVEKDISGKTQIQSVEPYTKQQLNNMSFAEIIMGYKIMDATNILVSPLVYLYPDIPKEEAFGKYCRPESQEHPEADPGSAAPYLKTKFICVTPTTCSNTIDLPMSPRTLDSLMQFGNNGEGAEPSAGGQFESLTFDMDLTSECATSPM

In the case of `CC(C)CNc1nc(NCc2ccc(C3CCCCC3)cc2)nc2c1ncn2CC(=O)O` [8bj, 2-(2-((4-cyclohexylbenzyl)amino)-6-(isobutylamino)-9H-purin-9-yl)acetic acid], the “constitutive levels of Src (pSrc)” value in the assay with pSrc is recorded as “no effect”. The “constitutive STAT3 phosphorylation” value in the assay on pY705STAT3 [1] and in the assay with pY705STAT3 [3] was “inhibition of constitutive STAT3 phosphorylation” in each case. The half-maximal inhibitory concentration (IC50) in the assay with DU 145 is 65.3 ± 2.3 µM; with Panc-1, 77.2 ± 1.9 µM; with MDA-MB-231, 66.1 ± 2.1 µM; in the assay on NIH3T3/v-Src it was 41.1 ± 4.6 µM; in the assay with NIH3T3, > 500 µM; with TE-71, > 500 µM. Besides, the “epidermal growth factor (EGF)-induced STAT3 phosphorylation” value in the assay with pY705-STAT3 is on record as “selectively inhibited”. Moreover, the malignant cell viability result in assay [2] is “decrease in malignant cell viability”. Moreover, on STAT3, binding was characterised by a dissociation constant (Kd) of 39 µM. Besides, the “constitutive levels of phospho-ErkMAPK (pErk1/2)” value with pErk1/2 is recorded as “no effect”.
As for `O=C(O)Cn1cnc2c(NC3CCCC3)nc(NCc3ccc(C4CCCCC4)cc3)nc21` [8be, 2-(2-((4-cyclohexylbenzyl)amino)-6-(cyclopentylamino)-9H-purin-9-yl)acetic acid], the “constitutive levels of Src (pSrc)” value in the assay on pSrc was “no effect”. Besides, the “constitutive STAT3 phosphorylation” value with pY705STAT3 [1] and in the assay with pY705STAT3 [3] was “inhibition of constitutive STAT3 phosphorylation” throughout. For the same molecule, the “time after treatment at which STAT3 phosphorylation was inhibited” value in the assay on pY705STAT3 [1] (MDA-MB-231, time course) lay within 15 to 30 min. Besides, the “STAT3 phosphorylation after 6 h of treatment” value with pY705STAT3 [1] (MDA-MB-231, time course, 6 h) is on record as “restoration of STAT3 phosphorylation”. Also, the IC50 in the assay with DU 145 is 68.6 ± 1.8 µM; in the assay with Panc-1 it was 176 ± 5.3 µM; with MDA-MB-231, 145 ± 4.4 µM; in the assay on NIH3T3/v-Src it was 100 ± 2.2 µM; with NIH3T3, > 500 µM; in the assay on TE-71 it was > 500 µM. Besides, in assay [2], the malignant cell viability entry is reported as “decrease in malignant cell viability”. Moreover, the “STAT3 phosphorylation during prolonged treatment” value in the assay on pY705STAT3 [3] (NIH3T3/v-Src fibroblasts, time course) was “temporarily restored”. In addition, the affinity at STAT3, expressed as Kd, was 16.7 µM. In the assay on pErk1/2, the “constitutive levels of phospho-ErkMAPK (pErk1/2)” value is “no effect”.
